{"source": "patent US10981186B2", "about": "“Functional treatment application to particulate materials such as mulch or potting soil” (priority 2014, dated 2021)", "key": {"[1]": {"experiment": "Screening test 4: recovery of herbicide active ingredient from mulch (methanol extraction, HPLC)", "assay_type": "physicochemical", "procedure": "Screening test 4: Recovery of functional material from particulate material\nIn this experimental study the herbicide active ingredient was analyzed as the content of functional material (herbicide) as the active ingredient in the particulate material (mulch).\nAssay protocol: Ten milliliters of 100% methanol was used to extract the herbicide actives, Pendimethalin and Dimethenamid-P from one gram of mulch. Methanol and mulch were added to a vial and shaken at approximately 180 rpm for 30 minutes on a shaker table. Methanol was filtered from mulch and analyzed for actives via HPLC. Active ingredient recovery was recorded as weight percent. […]\nTable 2 and Table 3 show the results of an experiment related to the recovery of herbicide active ingredient from particulate material after providing functional herbicide coating. Table 2 and Table 3 show active ingredient releasing from the mulch at one month exposure compared to non-exposed mulch in warehouse."}, "[2]": {"tested_on": "red imported fire ant (Solenopsis invicta) workers", "details": "rate evaluation, 0.5 to 3 X label rate", "from_the_text": "Testing with red imported fire ant (Solenopsis invicta, RIFA), Argentine ant (Linepthema humile), and odorous house ant (OHA) workers. Ten inch plastic arenas (inside walls coated with Fluon® to prevent escape) were provided a layer of moistened play sand. A band of mulch was placed across the arena near one side. Between the closest side and the mulch, a micro-centrifuge tube with a universal ant diet was placed. In the larger open area of the arena was placed a water vial and a small weigh boat with either corn grit+soybean oil (RIFA) or 20% honey water (Argentine ant and OHA). Approximately 100 ants were placed in each arena. Mortality was evaluated at 6 or 7 days."}, "[3]": {"details": "Black mulch, Warehouse (non-exposed)"}, "[4]": {"details": "Natural mulch, Warehouse (non-exposed)"}, "[5]": {"details": "Red mulch, Warehouse (non-exposed)"}}}
{"smiles": "COC[C@H](C)N(C(=O)CCl)c1c(C)csc1C", "note": "[dimethenamid-P]", "values": [{"measurement": "weight percent of dimethenamid-P", "setting": "[1]; Black mulch, Bottom 1 month", "result": "<LOD"}, {"measurement": "weight percent of dimethenamid-P", "setting": "[1]; Black mulch, Top 1 month", "result": 0.00003, "unit": "weight percent"}, {"measurement": "weight percent of dimethenamid-P", "setting": "[1]; [3]", "result": 0.002, "unit": "weight percent"}, {"measurement": "weight percent of dimethenamid-P", "setting": "[1]; Natural mulch, Bottom 1 month", "result": "<LOD"}, {"measurement": "weight percent of dimethenamid-P", "setting": "[1]; Natural mulch, Top 1 month", "result": 0.00004, "unit": "weight percent"}, {"measurement": "weight percent of dimethenamid-P", "setting": "[1]; [4]", "result": 0.00203, "unit": "weight percent"}, {"measurement": "weight percent of dimethenamid-P", "setting": "[1]; Red mulch, Bottom 1 month", "result": 0.00000, "unit": "weight percent"}, {"measurement": "weight percent of dimethenamid-P", "setting": "[1]; Red mulch, Top 1 month", "result": 0.00002, "unit": "weight percent"}, {"measurement": "weight percent of dimethenamid-P", "setting": "[1]; [5]", "result": 0.00233, "unit": "weight percent"}]}
{"smiles": "CN/C(=N/CC1CCOC1)N[N+](=O)[O-]", "note": "(stereo not shown) [dinotefuran]", "values": [{"measurement": "effectiveness over the rates tested (conclusion in words)", "setting": "[2]", "result": "effective at all rates tested"}]}
{"smiles": "CCC(CC)Nc1c([N+](=O)[O-])cc(C)c(C)c1[N+](=O)[O-]", "note": "[pendimethalin]", "values": [{"measurement": "weight percent of pendimethalin", "setting": "[1]; Black mulch, Bottom 1 month", "result": 0.00005, "unit": "weight percent"}, {"measurement": "weight percent of pendimethalin", "setting": "[1]; Black mulch, Top 1 month", "result": 0.00044, "unit": "weight percent"}, {"measurement": "weight percent of pendimethalin", "setting": "[1]; [3]", "result": 0.0044, "unit": "weight percent"}, {"measurement": "weight percent of pendimethalin", "setting": "[1]; Natural mulch, Bottom 1 month", "result": 0.00026, "unit": "weight percent"}, {"measurement": "weight percent of pendimethalin", "setting": "[1]; Natural mulch, Top 1 month", "result": 0.00079, "unit": "weight percent"}, {"measurement": "weight percent of pendimethalin", "setting": "[1]; [4]", "result": 0.00674, "unit": "weight percent"}, {"measurement": "weight percent of pendimethalin", "setting": "[1]; Red mulch, Bottom 1 month", "result": 0.00026, "unit": "weight percent"}, {"measurement": "weight percent of pendimethalin", "setting": "[1]; Red mulch, Top 1 month", "result": 0.00054, "unit": "weight percent"}, {"measurement": "weight percent of pendimethalin", "setting": "[1]; [5]", "result": 0.00302, "unit": "weight percent"}]}
